The term solubility denotes the concentration that dissolves in the medium under given conditions.

Structures are written as SMILES.

These results are taken from patent US20230391729A1, “SUCCINATE SALTS OF N-(3-(4-(3-(DIISOBUTYLAMINO)PROPYL)PIPERAZIN-1-YL)PROPYL)-1H-BENZO[D]IMIDAZOL-2-AMINE, PREPARATION THEREOF AND USE OF THE SAME” (ALZPROTECT, priority 2020, published 2023).

Format in all cases: physicochemical
The nature of data set [1]: Polymorphic form stability of di-sulphate salt upon drying at 50° C.
A short description of data set [2]: Water solubility of di-sulphate salt (background).
Data set [3] in a line: Storage stability of free base, di-sulphate salt and its aqueous solutions (background). Particulars: for stability of aqueous solution: glass vials, no preservative.
The nature of data set [4]: Dynamic vapour sorption (DVS). How it is done: Approximately 10-20 mg of sample was placed into a mesh vapour sorption balance pan and loaded into an Intrinsic dynamic vapour sorption balance by Surface Measurement Systems. The sample was subjected to a ramping profile from 40-90% relative humidity (RH) at 10% increments, maintaining the sample at each step until a stable weight had been achieved (dm/dt 0.004%, minimum step length 30 minutes, maximum step length 500 minutes) at 25° C. After completion of the sorption cycle, the sample was dried using the same procedure to 0% RH and then a second sorption cycle back to 40% RH. Two cycles were performed. The weight change during the sorption/desorption cycles were plotted, allowing for the hygroscopic nature of the sample to be determined. XRPD analysis was then carried out on any solid retained.

The nature of data set [5]: 7-day stability tests of the salt (XRPD, HPLC purity). Particulars: 50° C., 80° C. and ambient light. The procedure: 7-day stability tests were carried out as follows: 15 mg of salt was weighed into x3 2 mL vials. The vials were then placed at 40° C./75% RH, 80° C. and under ambient light; after 1 week, the solids were analysed by XRPD and HPLC purity (method A).
The nature of data set [6]: Solubility assessment in unbuffered water and pH buffers. The settings on record: thermodynamic from solid. The procedure: 100 μL of the appropriate buffer was added to form a slurry.

As to `CC(C)CN(CCCN1CCN(CCCNc2nc3ccccc3[nH]2)CC1)CC(C)C.O=S(=O)(O)O.O=S(=O)(O)O` [Form A, N-(3-(4-(3-(diisobutylamino)propyl)piperazin-1-yl)propyl)-1H-benzo[d]imidazol-2-amine di-sulphate salt], the “crystalline form stability upon drying” value in data set [1] (di-sulphate salt) was “converts back to polymorphic Form B”.

As to `CC(C)CN(CCCN1CCN(CCCNc2nc3ccccc3[nH]2)CC1)CC(C)C.O=S(=O)(O)O.O=S(=O)(O)O` [Form B, N-(3-(4-(3-(diisobutylamino)propyl)piperazin-1-yl)propyl)-1H-benzo[d]imidazol-2-amine di-sulphate], the “crystalline form stability upon drying” value in data set [1] (di-sulphate) is “partially loses its crystallinity”.

As for `CC(C)CN(CCCN1CCN(CCCNc2nc3ccccc3[nH]2)CC1)CC(C)C.O=S(=O)(O)O.O=S(=O)(O)O` [di-sulphate salt, N-(3-(4-(3-(diisobutylamino)propyl)piperazin-1-yl)propyl)-1H-benzo[d]imidazol-2-amine di-sulphate], the solubility in data set [2] is > 100 mg/mL. Moreover, the entries for the “stability of aqueous solution” value in data set [3] (5° C.), in data set [3] (25° C./60% RH) and in data set [3] (40° C./75% RH) were “up to 18 months”, “up to 18 months” and “up to 6 months”, respectively. Moreover, in data set [3] (15-25° C.), the “stability to regular storage conditions” value is recorded as “at least 5 years”.

Turning to `CC(C)CN(CCCN1CCN(CCCNc2nc3ccccc3[nH]2)CC1)CC(C)C` [free base, N-(3-(4-(3-(diisobutylamino)propyl)piperazin-1-yl)propyl)-1H-benzo[d]imidazol-2-amine], in data set [3], the long term stability entry is “long term stability issues due to oxidative degradation”.

Turning to `CC(C)CN(CCCN1CCN(CCCNc2nc3ccccc3[nH]2)CC1)CC(C)C.O=C(O)CCC(=O)O.O=C(O)CCC(=O)O.O=C(O)CCC(=O)O` [tris-succinate salt Form 2, N-(3-(4-(3-(diisobutylamino)propyl)piperazin-1-yl)propyl)-1H-benzo[d]imidazol-2-amine tris-succinate salt], in data set [4] (after DVS cycle), the “Post-DVS XRPD crystalline form” value is listed as “remain as tris-succinate salt Form 2”. In data set [4] (at 70% RH, 25° C.), the DVS weight uptake entry is reported as “ca. +0.1 wt. %”. In addition, in data set [4] (up to 90% RH), the “DVS water uptake in equivalents” value is given as “approximately 4.3 equiv. water”. For the same molecule, in data set [4] (up to 90% RH, 25° C.), the DVS weight increase entry is “ca. +9.92 wt. %”. The hygroscopicity entry in data set [4] (up to 90% relative humidity) is “not hygroscopic”. Moreover, in data set [5], the 7-day stability entry is listed as “stable”. The solubility in data set [6] (pH 1.2, simulated gastric fluid) was > 123 mg/mL; in data set [6] (pH 4.5, aqueous buffer) it was > 92.4 mg/mL; in data set [6] (pH 6.8, aqueous buffer) it was > 95.7 mg/mL.
